Tests used:
Integrin alpha-4/beta-7 = target: T1, Integrin alpha-4/beta-7 (Homo sapiens, UniProt P13612+P26010); test: Inhibition of human integrin alpha-4-beta-7-MAdCAM interaction in human RPMI 8866 cells by whole-cell adhesion assay; format: cell-based
T1 sequence (P13612 whole entry): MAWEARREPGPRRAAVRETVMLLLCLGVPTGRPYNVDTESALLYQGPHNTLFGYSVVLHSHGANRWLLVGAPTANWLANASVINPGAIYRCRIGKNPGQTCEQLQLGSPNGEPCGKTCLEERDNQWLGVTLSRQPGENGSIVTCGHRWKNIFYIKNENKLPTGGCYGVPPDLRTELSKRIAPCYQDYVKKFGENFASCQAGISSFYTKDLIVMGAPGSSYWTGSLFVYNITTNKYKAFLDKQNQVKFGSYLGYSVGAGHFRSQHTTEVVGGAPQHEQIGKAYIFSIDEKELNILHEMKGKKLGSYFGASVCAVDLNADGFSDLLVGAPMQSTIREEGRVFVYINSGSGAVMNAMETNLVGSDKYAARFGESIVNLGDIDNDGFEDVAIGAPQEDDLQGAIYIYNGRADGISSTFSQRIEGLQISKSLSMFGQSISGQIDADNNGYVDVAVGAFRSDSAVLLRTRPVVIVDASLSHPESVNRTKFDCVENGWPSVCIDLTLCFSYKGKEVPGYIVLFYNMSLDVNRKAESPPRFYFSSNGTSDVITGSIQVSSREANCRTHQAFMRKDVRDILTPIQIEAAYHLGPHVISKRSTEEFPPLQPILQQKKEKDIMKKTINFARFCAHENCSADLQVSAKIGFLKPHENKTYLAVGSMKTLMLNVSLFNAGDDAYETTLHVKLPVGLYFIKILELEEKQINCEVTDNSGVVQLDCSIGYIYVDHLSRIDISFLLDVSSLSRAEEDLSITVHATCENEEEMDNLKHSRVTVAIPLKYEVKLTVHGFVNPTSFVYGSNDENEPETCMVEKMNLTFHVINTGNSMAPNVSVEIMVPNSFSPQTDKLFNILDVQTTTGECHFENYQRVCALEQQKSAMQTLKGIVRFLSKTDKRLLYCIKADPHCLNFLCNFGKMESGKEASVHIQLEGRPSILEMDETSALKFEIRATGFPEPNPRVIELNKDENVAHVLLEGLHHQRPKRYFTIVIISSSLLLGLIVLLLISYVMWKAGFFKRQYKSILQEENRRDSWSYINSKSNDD
T1 sequence (P26010 whole entry): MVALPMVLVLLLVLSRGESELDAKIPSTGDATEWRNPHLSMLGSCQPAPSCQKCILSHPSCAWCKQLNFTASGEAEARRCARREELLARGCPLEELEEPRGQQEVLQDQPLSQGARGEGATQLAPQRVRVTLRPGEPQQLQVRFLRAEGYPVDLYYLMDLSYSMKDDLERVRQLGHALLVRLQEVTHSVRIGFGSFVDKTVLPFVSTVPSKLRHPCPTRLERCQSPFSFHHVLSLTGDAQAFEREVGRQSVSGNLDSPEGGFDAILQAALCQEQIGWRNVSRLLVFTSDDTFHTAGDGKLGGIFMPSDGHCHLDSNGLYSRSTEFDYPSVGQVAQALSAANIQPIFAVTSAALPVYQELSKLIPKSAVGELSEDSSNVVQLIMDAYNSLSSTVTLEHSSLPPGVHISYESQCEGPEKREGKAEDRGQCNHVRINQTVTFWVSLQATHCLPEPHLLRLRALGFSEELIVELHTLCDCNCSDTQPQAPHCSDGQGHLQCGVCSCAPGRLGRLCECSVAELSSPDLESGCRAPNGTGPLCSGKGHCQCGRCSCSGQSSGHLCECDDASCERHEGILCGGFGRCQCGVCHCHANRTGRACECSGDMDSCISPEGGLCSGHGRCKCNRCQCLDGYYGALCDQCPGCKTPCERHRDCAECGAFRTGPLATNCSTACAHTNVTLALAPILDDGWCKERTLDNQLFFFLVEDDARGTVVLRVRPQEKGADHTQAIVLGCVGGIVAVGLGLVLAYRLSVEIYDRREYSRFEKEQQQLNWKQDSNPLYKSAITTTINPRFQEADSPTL

Integrin alpha-4/beta-1 = Integrin alpha-4/beta-1 (Homo sapiens, UniProt P05556+P13612); test: Inhibition of integrin alpha-4-beta-1-VCAM interaction; format: protein-complex assay
Integrin alpha-4/beta-1, sequence (P05556 whole entry, one chain of several): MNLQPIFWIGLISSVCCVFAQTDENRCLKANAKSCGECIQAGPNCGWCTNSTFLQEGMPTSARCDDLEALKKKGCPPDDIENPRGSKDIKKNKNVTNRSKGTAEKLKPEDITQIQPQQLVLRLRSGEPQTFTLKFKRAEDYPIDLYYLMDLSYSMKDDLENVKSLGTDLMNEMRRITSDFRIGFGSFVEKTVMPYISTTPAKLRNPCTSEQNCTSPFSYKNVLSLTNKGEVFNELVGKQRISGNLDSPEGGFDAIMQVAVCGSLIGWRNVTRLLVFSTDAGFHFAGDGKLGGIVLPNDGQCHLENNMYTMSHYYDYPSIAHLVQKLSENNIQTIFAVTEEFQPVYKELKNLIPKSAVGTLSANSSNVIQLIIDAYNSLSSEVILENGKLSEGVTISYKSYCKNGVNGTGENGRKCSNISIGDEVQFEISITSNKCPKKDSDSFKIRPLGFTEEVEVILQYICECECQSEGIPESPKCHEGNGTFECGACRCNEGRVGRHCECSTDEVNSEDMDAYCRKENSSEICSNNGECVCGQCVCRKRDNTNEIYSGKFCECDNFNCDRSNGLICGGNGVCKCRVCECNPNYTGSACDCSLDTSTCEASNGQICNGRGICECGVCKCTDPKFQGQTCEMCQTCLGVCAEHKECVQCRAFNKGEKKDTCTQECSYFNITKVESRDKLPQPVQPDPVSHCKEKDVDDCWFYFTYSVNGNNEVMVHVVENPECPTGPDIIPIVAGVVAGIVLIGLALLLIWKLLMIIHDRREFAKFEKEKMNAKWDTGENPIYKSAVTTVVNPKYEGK

Integrin alpha-5/beta-1 = Integrin alpha-5/beta-1 (Homo sapiens, UniProt P05556+P08648); test: Inhibition of integrin alpha-5-beta-1-fibronectin interaction; format: protein-complex assay
Integrin alpha-5/beta-1, sequence (P05556 21-798 limits assumed): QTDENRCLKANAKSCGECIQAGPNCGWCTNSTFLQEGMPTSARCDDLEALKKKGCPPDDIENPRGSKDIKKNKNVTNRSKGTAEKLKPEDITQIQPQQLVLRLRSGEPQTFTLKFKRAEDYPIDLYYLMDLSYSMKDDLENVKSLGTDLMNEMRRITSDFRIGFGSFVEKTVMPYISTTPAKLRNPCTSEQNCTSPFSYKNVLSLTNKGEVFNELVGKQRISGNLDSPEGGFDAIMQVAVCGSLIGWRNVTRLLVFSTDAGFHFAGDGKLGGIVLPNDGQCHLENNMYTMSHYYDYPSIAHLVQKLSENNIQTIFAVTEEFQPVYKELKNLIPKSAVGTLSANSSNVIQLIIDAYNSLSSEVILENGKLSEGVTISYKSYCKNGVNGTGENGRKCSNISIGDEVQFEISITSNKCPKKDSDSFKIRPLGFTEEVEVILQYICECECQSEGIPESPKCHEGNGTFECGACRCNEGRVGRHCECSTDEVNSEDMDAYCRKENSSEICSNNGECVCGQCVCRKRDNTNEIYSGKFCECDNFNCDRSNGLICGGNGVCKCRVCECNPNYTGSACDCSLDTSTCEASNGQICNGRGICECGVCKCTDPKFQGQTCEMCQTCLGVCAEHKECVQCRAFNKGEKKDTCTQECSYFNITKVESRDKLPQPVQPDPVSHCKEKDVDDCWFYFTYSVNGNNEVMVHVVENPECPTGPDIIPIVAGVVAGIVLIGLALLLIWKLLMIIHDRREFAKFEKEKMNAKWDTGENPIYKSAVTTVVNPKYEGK
Integrin alpha-5/beta-1, sequence (P08648 42-894 limits assumed): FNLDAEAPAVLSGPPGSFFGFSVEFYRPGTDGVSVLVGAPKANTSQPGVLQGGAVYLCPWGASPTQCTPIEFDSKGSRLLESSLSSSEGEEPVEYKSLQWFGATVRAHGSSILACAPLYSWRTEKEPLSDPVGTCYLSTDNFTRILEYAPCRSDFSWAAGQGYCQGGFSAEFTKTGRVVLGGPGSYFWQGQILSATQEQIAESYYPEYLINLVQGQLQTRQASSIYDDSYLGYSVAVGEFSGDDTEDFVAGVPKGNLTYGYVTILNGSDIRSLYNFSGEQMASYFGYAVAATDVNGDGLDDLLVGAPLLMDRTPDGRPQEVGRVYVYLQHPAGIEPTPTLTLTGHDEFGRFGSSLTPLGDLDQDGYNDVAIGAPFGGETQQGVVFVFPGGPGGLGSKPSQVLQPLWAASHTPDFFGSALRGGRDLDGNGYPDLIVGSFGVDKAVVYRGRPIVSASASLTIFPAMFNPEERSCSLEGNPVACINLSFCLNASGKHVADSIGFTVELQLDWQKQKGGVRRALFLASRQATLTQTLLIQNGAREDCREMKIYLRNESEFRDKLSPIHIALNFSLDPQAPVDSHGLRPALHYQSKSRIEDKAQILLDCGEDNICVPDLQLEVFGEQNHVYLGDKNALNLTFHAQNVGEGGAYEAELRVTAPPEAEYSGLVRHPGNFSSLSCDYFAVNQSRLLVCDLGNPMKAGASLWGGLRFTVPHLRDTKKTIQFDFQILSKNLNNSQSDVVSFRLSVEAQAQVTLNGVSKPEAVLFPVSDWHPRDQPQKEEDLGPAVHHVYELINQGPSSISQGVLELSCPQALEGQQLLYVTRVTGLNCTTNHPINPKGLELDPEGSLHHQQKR
Integrin alpha-5/beta-1, sequence (P08648 895-1049 limits assumed): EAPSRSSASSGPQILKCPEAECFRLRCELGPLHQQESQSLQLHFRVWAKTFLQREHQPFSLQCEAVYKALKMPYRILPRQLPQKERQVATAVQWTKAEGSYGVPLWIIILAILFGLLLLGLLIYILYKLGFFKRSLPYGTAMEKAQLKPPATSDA

[1] = Oral bioavailability in mouse; format: ADME, organism-based; details: in vivo
[2] = Half life in mouse; format: ADME, organism-based; details: in vivo
[3] = Clearance in mouse; format: ADME, organism-based; details: in vivo
[4] = Volume of distribution in mouse; format: ADME, organism-based; details: in vivo
Mus musculus = organism: Mus musculus; test: AUC in mouse; format: ADME, organism-based, Plasma; details: in vivo

Compound	IC50 (Integrin alpha-4/beta-7)	also measured
O=C1NC(=O)N(c2ccccc2)C(=O)/C1=C\c1ccccc1	2.2 µM	–
O=C1NC(=O)N(c2ccccc2)C(=O)/C1=C\c1ccc(C(F)(F)F)cc1	1.3 µM	–
O=C1NC(=O)N(c2ccccc2-c2ccccc2)C(=O)/C1=C\c1c[nH]c2ccccc12	0.26 µM	IC50 (Integrin alpha-4/beta-1): > 20 µM; IC50 (Integrin alpha-5/beta-1): > 20 µM
O=C1NC(=O)N(c2ccccc2)C(=O)/C1=C\c1cc2ccccc2[nH]1	10 µM	–
Cn1cc(/C=C2/C(=O)NC(=O)N(c3ccccc3)C2=O)c2ccccc21	4.1 µM	–
O=C1NC(=O)N(c2ccccc2)C(=O)/C1=C\c1ccco1	1.3 µM	IC50 (Integrin alpha-4/beta-1): > 20 µM; IC50 (Integrin alpha-5/beta-1): > 20 µM
O=C1NC(=O)N(c2cc(Cl)cc(Cl)c2)C(=O)/C1=C\c1ccccc1	1.6 µM	–
Cn1cc(/C=C2/C(=O)NC(=O)N(c3cccc4ccccc34)C2=O)c2ccccc21	0.18 µM	–
CC(C)(C)N1C(=O)NC(=O)/C(=C/c2c[nH]c3ccccc23)C1=O	> 20 µM	–
O=C1NC(=O)N(c2cccc3ccccc23)C(=O)/C1=C\c1c[nH]c2ccccc12	0.06 µM	IC50 (Integrin alpha-4/beta-1): > 20 µM; IC50 (Integrin alpha-5/beta-1): > 20 µM; bioavailability [1]: 62%; half-life [2]: 4.1 h; clearance [3]: 4.26 L/h/kg; Vd [4]: 24.8 L/kg; AUC (Mus musculus): 170 mg·min/mL
O=C1NC(=O)N(c2ccccc2)C(=O)/C1=C\c1c[nH]c2ccccc12	0.9 µM	–
O=C(/C=C1/C(=O)NC(=O)N(c2ccccc2)C1=O)/C=C/c1ccccc1	8.6 µM	–
O=C1NC(=O)N(c2ccc(Cl)cc2)C(=O)/C1=C\c1ccccc1	1 µM	–
CN1C(=O)/C(=C/c2c[nH]c3ccccc23)C(=O)N(c2cccc3ccccc23)C1=O	5.5 µM	–
